How the values were obtained:
[1] = tested on: HCT116 cells (Securin+/+, securin parental cell line HCT116 FB); assay: Growth inhibition of securin parental cells (SRB, 5 days); type: cell-based; conditions: Homo sapiens, HCT-116, 120 h
Protocol: (§1) IC50 analysis was performed for selected fused heterobicyclic 2-aryl or 2-heteroarylthiazolyl compounds that were tested on HCT116 cells and Securin “knock out” cell lines.
(§2) Cell Culture—HCT116 and securin “knock out” cells. HCT116 and securin “knock out” cells (D8 and F3) were grown in RPMI+5% fetal bovine serum and gentamycin. They were maintained in a humidified 37° C. incubator with 5% CO2. Since the securin “knock out” cells have active chromosomal instability, cells were used at a low passage number of 2-13 passages. At or before passage 13 a new vial of cells was thawed and used for the screen. Cell seeding—HCT116 cells and securin “knock out” cells were trypsinized and suspenended in RPMI+5% FBS at a density of 27,000 cells/mL. HCT116 and securin “knock out” cells were seeded separately in wells of a 96-well plate (Falcon Cat # 35-3872) at a cell density of 4000 cells per well. Cells were seeded in 150 μL of RPMI media containing 5% FBS and gentamycin. Cell seeding was performed under aseptic conditions. Cells were allowed to attach and grow overnight in a humidified 37° C. incubator.
(§3) Compound Dilution and Dispensation. A series of stock solutions, 10 mg/ml of 2-aryl- or 2-heteroarylthiazolyl compounds to be tested, were brought to room temperature. The compounds were diluted 1:50 in RPMI+5% FBS (Highest concentration 200 μg/mL). The compounds were then serially diluted 1:3 across a deep-well titration plate resulting in final concentrations in the plate of 200, 66.7, 22.2, 7.4, 2.4, 0.8 0.27, 0.091, 0.03, 0.01, and 0.0034 μg/mL with one well left without a compound. 50 μL of this dilution series was added to the 150 μL of cells to result in a final concentration of compound in with the cells of 50, 16.6, 5.5, 1.8, 0.6, 0.2, 0.068, 0.023, 0.0076, 0.0025, and 0.00084 μg/mL. The dilution and addition of compounds to the plates is performed using a Multimek 96 Robot (Beckman Coulter).
(§4) Incubation and analysis. After dosing, the cells in the 96 well plates were returned to the humidified 37° C. incubator. The compounds remained on the cells for 5 days. After 5 days, the cells were fixed to the plates with the addition of 50 μL of 50% (vol/vol) Trichloro Acetic Acid ([…]). The cells were fixed at 4° C. for 1 hour. The plates were washed 5 times in distilled water and allowed to dry. The cells were stained with 0.4% sulforhodamine B (Sigma) in 1% acetic acid. The cells were stained for 15 minutes at room temperature. The plates were then washed 3 times in 1% acetic acid. The plates were dried and the dye was solubilized in 10 mM Tris at pH 8.0. The plates were read on the Absorbence 560 setting on a Victor^2 V Model 1420 Multilabel HTS counter (Perkin Elmer).
(§5) Analysis of Results—IC50 data. Absorbence data was read off of the Victor and was converted to a percentage of the control (untreated) values. IC50 values were graphed and the point at which a 50% inhibition of the control level was determined. […] If the model was not able to determine an IC50, the IC50 was assigned to the lowest concentration that gives a 50% or greater decrease in absorbence compared to control levels. If the calculated IC50 value for a cell line exceeds the top concentration for the assay (typically 50 μg/mL), the assay was scored as >50.

[2] = tested on: securin "knock out" cells D8 (Securin−/−); assay: Growth inhibition of securin knock out cells D8 (SRB, 5 days); type: cell-based; conditions: for IC50: 120 h, securin knock out D8 cells, 5 days, SRB; for Selectivity Ratio D8: IC50 HCT116 / IC50 securin KO D8
Protocol: as §1, §2, §3, §4, §5
(§6) Selectivity Ratio. The Selectivity Ratio is the ratio of IC50s between the parent cell line and the knock out cell line and is always a positive number and is typically an integer.

[3] = tested on: securin "knock out" cells F3 (Securin−/−); assay: Growth inhibition of securin knock out cells F3 (SRB, 5 days); type: cell-based; conditions: for IC50: 120 h, securin knock out F3 cells, 5 days, SRB; for Selectivity Ratio F3: IC50 HCT116 / IC50 securin KO F3
Protocol: as §1, §2, §3, §4, §5, §6

[4] = tested on: xenografts of a human breast carcinoma cell line (MDA-MB-361); assay: In-vivo activity in tumor xenografts
Protocol: Selected fused heterobicyclic 2-aryl- or 2-heteroarylthiazolyl compounds of formula I were tested for their activity in a securin parental cell line (HCT116 FB) and a securin knockout (KO) cell line. […] The in-vivo activity of selected fused heterobicyclic 2-arylarylthiazolyl compounds of formula I was studied in cells growing as xenografts in athymic (nude) mice. The effect of Examples 5-7 and 10 was studied in xenografts of a human breast carcinoma cell line (MDA-MB-361).
In-vivo Activity in Tumor Xenografts. The effectiveness of Examples 5-7 versus Vincristine at controlling tumor growth was studied and the results are summarized in Table 2 and FIG. 1. The 2-arylthiazolyl compounds were formulated 0.5% Methocel™ (methylcellulose) and 0.4% Tween 80™ (polysorbate-80 and oleic acid) and administered daily orally (PO), by gavage or intraperiotenially (IP) by syringe. Tumor mass [(length×width^2)/2] was determined every 7 days. Inhibition of tumor growth was calculated relative to conventional (vehicle treated) controls.

[5] = 20 mg/kg/dose PO, days 1 through 20
[6] = 50 mg/kg/dose PO, days 1 through 20
[7] = 0.8 mg/kg/dose IP, days 1, 5 and 9

Row | Structure (SMILES) | IC50 [1] [µM] | IC50 [2] [µM] | Selectivity Ratio D8 [2] | IC50 [3] [µM] | Selectivity Ratio F3 [3] | other results
1 | CN(C)c1ccc(-c2nc3c(s2)C(O)CNC3)cc1 (racemic) [Example 2, 2-(4-dimethylamino-phenyl)-4,5,6,7-tetrahydro[1,3]thiazolo[4,5-c]pyridin-7-ol] | 86.4 | 0.931 | 93 | 1.28 | 68 | 
2 | OCc1cc(N2CCCC2)ccc1-c1nc2c(s1)C(O)CNC2 (racemic) [Example 10, (7R,7S)-2-(2-hydroxymethyl-4-pyrrolidin-1-yl-phenyl)-4,5,6,7-tetrahydro[1,3]thiazolo[4,5-c]pyridin-7-ol] | 80.6 | 0.0808 | 998 | 0.0944 | 854 | selectivity ratio (IC50 HCT116 FB/IC50 securin KO), in words [2]: high selectivity ratio
3 | OC1CCCc2nc(-c3ccc(N4CCCC4)cc3)sc21 (centres unmarked) [2-(4-pyrrolidiny-1-ylphenyl)-4,5,6,7-tetrahydro-1,3-benzothiazol-7-ol, reference compound] |  |  |  |  |  | S/T = # of Survivors/# of Treated on Day +21 post tumor staging [4, 5]: 10/10; % T/C Day 7 [4, 5]: 101%; Relative Tumor Growth Day 7 [4, 5]: 1.67; % T/C Day 14 [4, 5]: 109%; Relative Tumor Growth Day 14 [4, 5]: 5.48; % T/C Day 21 [4, 5]: 132%; Relative Tumor Growth Day 21 [4, 5]: 12.07; S/T = # of Survivors/# of Treated on Day +21 post tumor staging [4, 6]: 10/10; % T/C Day 7 [4, 6]: 95%; Relative Tumor Growth Day 7 [4, 6]: 1.57; % T/C Day 14 [4, 6]: 78%; Relative Tumor Growth Day 14 [4, 6]: 3.93; % T/C Day 21 [4, 6]: 95%; Relative Tumor Growth Day 21 [4, 6]: 8.73
4 | CN1Cc2nc(-c3ccc(N(C)C)cc3)sc2C(O)C1 (centres unmarked) [Example 1, 2-(4-dimethylamino-phenyl)-5-methyl-4,5,6,7-tetrahydro[1,3]thiazolo[4,5-c]pyridine-7-ol] | 23.9 | 2.48 | 10 | 3.07 | 8 | 
5 | CN(C)c1ccc(-c2nc3c(s2)[C@H](O)CNC3)cc1 [Example 3, (R)-2-(4-dimethylamino-phenyl)-4,5,6,7-tetrahydro[1,3]thiazolo[4,5-c]pyridin-7-ol] | 66.4 | 0.395 | 168 | 0.555 | 120 | 
6 | CN(C)c1ccc(-c2nc3c(s2)[C@@H](O)CNC3)cc1 [Example 4, (S)-2-(4-dimethylamino-phenyl)-4,5,6,7-tetrahydro[1,3]thiazolo[4,5-c]pyridin-7-ol] | 169 | 2.19 | 77 | 3.39 | 50 | 
7 | CN(C)c1ccc(-c2nc3c(s2)C(O)CNC3)c(CO)c1 (centres unmarked) [Example 8, 2-(2-hydroxymethyl-4-dimethylamino-phenyl)-4,5,6,7-tetrahydro[1,3]thiazolo[4,5-c]pyridine-7-ol] | 100 | 0.0989 | 1011 | 0.107 | 936 | 
8 | COC(=O)c1cc(N(C)C)ccc1-c1nc2c(s1)C(O)CNC2 (centres unmarked) [Example 9, methyl 5-(dimethylamino)-2-(7-hydroxy-4,5,6,7-tetrahydro[1,3]thiazolo[4,5-c]pyridin-2-yl)benzoate] | 100 | 0.53 | 189 | 0.67 | 149 | 
9 | OCc1cc(N2CCCC2)ccc1-c1nc2c(s1)[C@H](O)CNC2 [Example 11, (7R)-2-(2-hydroxymethyl-4-pyrrolidin-1-yl-phenyl)-4,5,6,7-tetrahydro[1,3]thiazolo[4,5-c]pyridin-7-ol] | 91.4 | 0.0406 | 2251 | 0.0483 | 1892 | 
10 | COC(=O)c1cc(N2CCCC2)ccc1-c1nc2c(s1)C(O)CNC2 (centres unmarked) [Example 13, Methyl 5-(4-pyrrolidin-1-yl)-2-(7-hydroxy-4,5,6,7-tetrahydro[1,3]thiazolo[4,5-c]pyridin-2-yl)benzoate] | 59.2 | 0.342 | 173 | 0.516 | 115 | 
11 | Nc1cc(N2CCCC2)ccc1-c1nc2c(s1)C(O)CNC2 (centres unmarked) [Example 14, 2-(2-amino-4-pyrrolidin-1-yl-phenyl)-4,5,6,7-tetrahydro[1,3]thiazolo[4,5-c]pyridin-7-ol] | 48.1 | 0.0379 | 1269 | 0.0486 | 990 | 
12 | O=[N+]([O-])c1cc(N2CCCC2)ccc1-c1nc2c(s1)C(O)CNC2 (centres unmarked) [Example 15, 2-(2-nitro-4-pyrrolidin-1-yl-phenyl)-4,5,6,7-tetrahydro[1,3]thiazolo[4,5-c]pyridin-7-ol] | 28.4 | 2.95 | 10 | 4.6 | 6 | 
13 | CN(C)c1ccc(-c2nc3c(s2)C(O)COC3)cc1Br (centres unmarked) [Example 16, 2-[3-bromo-4-(dimethylamino)phenyl]-6,7-dihydro-4H-pyrano[3,4-d][1,3]thiazol-7-ol] | 41.6 | 14.3 | 3 | 15.2 | 3 | 
14 | CN(C)c1ccc(-c2nc3c(s2)C(O)COC3)cc1 (centres unmarked) [Example 17, 2-[4-(dimethylamino)phenyl]-6,7-dihydro-4H-pyrano[3,4-d][1,3]thiazol-7-ol] | 51.1 | 1.12 | 46 | 1.53 | 33 | 
15 | CC[C@]1(O)C[C@H]2CN(CCc3c([nH]c4ccccc34)[C@@](C(=O)OC)(c3cc4c(cc3OC)N(C=O)[C@H]3[C@@](O)(C(=O)OC)[C@H](OC(C)=O)[C@]5(CC)C=CCN6CC[C@]43[C@@H]65)C2)C1 [Vincristine, reference compound] |  |  |  |  |  | % T/C Day 7 [4, 7]: 80%; Relative Tumor Growth Day 7 [4, 7]: 1.33; % T/C Day 14 [4, 7]: 43%; Relative Tumor Growth Day 14 [4, 7]: 2.14; % T/C Day 21 [4, 7]: 58%; Relative Tumor Growth Day 21 [4, 7]: 5.29
